Experimental data published in the NIST ThermoML archive (doi:10.1021/acs.jced.5b00527).
± gives the expanded uncertainty stated by the source.

How the values were obtained:
[1] = 298.15 K; 101.33 kPa; Liquid; Vibrating tube method
[2] = refractive index (Na D-line) (dimensionless); details: 298.15 K; 101.33 kPa; Liquid; Standard Abbe refractometry

mass density [1] [kg/m3] | refractive index [2] | SMILES
941.63 ± 6 | 1.3899 ± 0.0041 | CC(C)C(=O)O [2-methylpropanoic acid]
723.8 ± 6 | 1.3674 ± 0.004 | CC(C)OC(C)C [diisopropyl ether]
– | 1.3324 ± 0.0041 | O [water]

Second part, the compound before the results:

SMILES | mass density [1] [kg/m3] | refractive index [2]
CCCCO [butan-1-ol] | 807.96 ± 6 | 1.3941 ± 0.0041
CCCC(=O)O [butanoic acid] | 952.1 ± 6 | 1.3981 ± 0.0041
CO [methanol] | 791 ± 6 | 1.3281 ± 0.0041
